Reference: ChEMBL document CHEMBL1649267, “Molecular epidemiology and mechanisms of carbapenem resistance in Pseudomonas aeruginosa” (2009)
Converted amounts (≈) assume the structure as drawn.

Tests used:
[1] = system: Pseudomonas aeruginosa; format: functional; details: isolate Paebeta-24
[2] = system: Pseudomonas aeruginosa; format: functional; details: isolate Paebeta-25
[3] = system: Pseudomonas aeruginosa; format: functional; details: isolate Paebeta-26
[4] = system: Pseudomonas aeruginosa; format: functional; details: isolate Paebeta-27
[5] = system: Pseudomonas aeruginosa; format: functional; details: isolate Paebeta-28
[6] = system: Pseudomonas aeruginosa; format: functional; details: isolate Paebeta-29
[7] = system: Pseudomonas aeruginosa; format: functional; details: isolate Paebeta-30
[8] = system: Pseudomonas aeruginosa; format: functional; details: isolate Paebeta-22
[9] = system: Pseudomonas aeruginosa; format: functional; details: isolate Paebeta-21
[10] = system: Pseudomonas aeruginosa; format: functional; details: isolate Paebeta-20
[11] = system: Pseudomonas aeruginosa; format: functional; details: isolate Paebeta-19
[12] = system: Pseudomonas aeruginosa; format: functional; details: isolate Paebeta-18
[13] = system: Pseudomonas aeruginosa; format: functional; details: isolate Paebeta-17
[14] = system: Pseudomonas aeruginosa; format: functional; details: isolate Paebeta-16
[15] = system: Pseudomonas aeruginosa; format: functional; details: isolate Paebeta-15
[16] = system: Pseudomonas aeruginosa; format: functional; details: isolate Paebeta-14
[17] = system: Pseudomonas aeruginosa; format: functional; details: isolate Paebeta-13
[18] = system: Pseudomonas aeruginosa; format: functional; details: isolate Paebeta-12
[19] = system: Pseudomonas aeruginosa; format: functional; details: isolate Paebeta-11
[20] = system: Pseudomonas aeruginosa; format: functional; details: isolate Paebeta-10
[21] = system: Pseudomonas aeruginosa; format: functional; details: isolate Paebeta-09
[22] = system: Pseudomonas aeruginosa; format: functional; details: isolate Paebeta-08
[23] = system: Pseudomonas aeruginosa; format: functional; details: isolate Paebeta-07
[24] = system: Pseudomonas aeruginosa; format: functional; details: isolate Paebeta-06
[25] = system: Pseudomonas aeruginosa; format: functional; details: isolate Paebeta-05
[26] = system: Pseudomonas aeruginosa; format: functional; details: isolate Paebeta-04
[27] = system: Pseudomonas aeruginosa; format: functional; details: isolate Paebeta-03
[28] = system: Pseudomonas aeruginosa; format: functional; details: isolate Paebeta-02
[29] = system: Pseudomonas aeruginosa; format: functional; details: isolate Paebeta-01
[30] = system: Pseudomonas aeruginosa; format: functional; details: isolate Paebeta-31
[31] = system: Pseudomonas aeruginosa; format: functional; details: isolate Paebeta-32
[32] = system: Pseudomonas aeruginosa; format: functional; details: isolate Paebeta-01; remark: listed apart in the source
[33] = system: Pseudomonas aeruginosa; format: functional; details: isolate Paebeta-02; remark: listed apart in the source
[34] = system: Pseudomonas aeruginosa; format: functional; details: isolate Paebeta-03; remark: listed apart in the source
[35] = system: Pseudomonas aeruginosa; format: functional; details: isolate Paebeta-04; remark: listed apart in the source
[36] = system: Pseudomonas aeruginosa; format: functional; details: isolate Paebeta-05; remark: listed apart in the source
[37] = system: Pseudomonas aeruginosa; format: functional; details: isolate Paebeta-06; remark: listed apart in the source
[38] = system: Pseudomonas aeruginosa; format: functional; details: isolate Paebeta-07; remark: listed apart in the source
[39] = system: Pseudomonas aeruginosa; format: functional; details: isolate Paebeta-08; remark: listed apart in the source
[40] = system: Pseudomonas aeruginosa; format: functional; details: isolate Paebeta-09; remark: listed apart in the source
[41] = system: Pseudomonas aeruginosa; format: functional; details: isolate Paebeta-10; remark: listed apart in the source
[42] = system: Pseudomonas aeruginosa; format: functional; details: isolate Paebeta-11; remark: listed apart in the source
[43] = system: Pseudomonas aeruginosa; format: functional; details: isolate Paebeta-13; remark: listed apart in the source
[44] = system: Pseudomonas aeruginosa; format: functional; details: isolate Paebeta-14; remark: listed apart in the source
[45] = system: Pseudomonas aeruginosa; format: functional; details: isolate Paebeta-15; remark: listed apart in the source
[46] = system: Pseudomonas aeruginosa; format: functional; details: isolate Paebeta-16; remark: listed apart in the source
[47] = system: Pseudomonas aeruginosa; format: functional; details: isolate Paebeta-17; remark: listed apart in the source
[48] = system: Pseudomonas aeruginosa; format: functional; details: isolate Paebeta-18; remark: listed apart in the source
[49] = system: Pseudomonas aeruginosa; format: functional; details: isolate Paebeta-19; remark: listed apart in the source
[50] = system: Pseudomonas aeruginosa; format: functional; details: isolate Paebeta-20; remark: listed apart in the source
[51] = system: Pseudomonas aeruginosa; format: functional; details: isolate Paebeta-21; remark: listed apart in the source
[52] = system: Pseudomonas aeruginosa; format: functional; details: isolate Paebeta-22; remark: listed apart in the source
[53] = system: Pseudomonas aeruginosa; format: functional; details: isolate Paebeta-23
[54] = system: Pseudomonas aeruginosa; format: functional; details: isolate Paebeta-24; remark: listed apart in the source
[55] = system: Pseudomonas aeruginosa; format: functional; details: isolate Paebeta-25; remark: listed apart in the source
[56] = system: Pseudomonas aeruginosa; format: functional; details: isolate Paebeta-26; remark: listed apart in the source
[57] = system: Pseudomonas aeruginosa; format: functional; details: isolate Paebeta-27; remark: listed apart in the source
[58] = system: Pseudomonas aeruginosa; format: functional; details: isolate Paebeta-28; remark: listed apart in the source
[59] = system: Pseudomonas aeruginosa; format: functional; details: isolate Paebeta-29; remark: listed apart in the source
[60] = system: Pseudomonas aeruginosa; format: functional; details: isolate Paebeta-30; remark: listed apart in the source
[61] = system: Pseudomonas aeruginosa; format: functional; details: isolate Paebeta-31; remark: listed apart in the source
[62] = system: Pseudomonas aeruginosa; format: functional; details: isolate Paebeta-32; remark: listed apart in the source
[63] = system: Pseudomonas aeruginosa; format: functional; details: isolate Paebeta-23; remark: listed apart in the source
[64] = system: Pseudomonas aeruginosa; assay: microbe, parasite or virus in culture; details: isolate Paebeta-12
Description: Antibacterial activity against mexB, mexY and mexD expressing Pseudomonas aeruginosa isolate Paebeta-12 harboring A residue at 105 position in PDC- 2 and polymorphic OprD gene by Etest method in presence of cloxacillin

SMILES: CC(C)(O/N=C(\C(=O)N[C@@H]1C(=O)N2C(C(=O)[O-])=C(C[n+]3ccccc3)CS[C@H]12)c1csc(N)n1)C(=O)O [CEFTAZIDIME]
- MIC [1]: 64 µg/mL (≈ 117 µM)
- MIC [2]: 32 µg/mL (≈ 58.5 µM)
- MIC [3]: 32 µg/mL (≈ 58.5 µM)
- MIC [4]: 16 µg/mL (≈ 29.3 µM)
- MIC [5]: 16 µg/mL (≈ 29.3 µM)
- MIC [6]: 8 µg/mL (≈ 14.6 µM)
- MIC [7]: 8 µg/mL (≈ 14.6 µM)
- MIC [8]: 16 µg/mL (≈ 29.3 µM)
- MIC [9]: 32 µg/mL (≈ 58.5 µM)
- MIC [10]: 8 µg/mL (≈ 14.6 µM)
- MIC [11]: 8 µg/mL (≈ 14.6 µM)
- MIC [12]: 128 µg/mL (≈ 234 µM)
- MIC [13]: 64 µg/mL (≈ 117 µM)
- MIC [14]: 32 µg/mL (≈ 58.5 µM)
- MIC [15]: 32 µg/mL (≈ 58.5 µM)
- MIC [16]: 16 µg/mL (≈ 29.3 µM)
- MIC [17]: 4 µg/mL (≈ 7.32 µM)
- MIC [18]: 16 µg/mL (≈ 29.3 µM)
- MIC [19]: 16 µg/mL (≈ 29.3 µM)
- MIC [20]: 16 µg/mL (≈ 29.3 µM)
- MIC [21]: 16 µg/mL (≈ 29.3 µM)
- MIC [22]: 16 µg/mL (≈ 29.3 µM)
- MIC [23]: 16 µg/mL (≈ 29.3 µM)
- MIC [24]: 16 µg/mL (≈ 29.3 µM)
- MIC [25]: 32 µg/mL (≈ 58.5 µM)
- MIC [26]: 32 µg/mL (≈ 58.5 µM)
- MIC [27]: 16 µg/mL (≈ 29.3 µM)
- MIC [28]: 8 µg/mL (≈ 14.6 µM)
- MIC [29]: 8 µg/mL (≈ 14.6 µM)
- MIC [30]: 32 µg/mL (≈ 58.5 µM)
- MIC [31]: 32 µg/mL (≈ 58.5 µM)
- MIC [32]: 8 µg/mL (≈ 14.6 µM)
- MIC [33]: 8 µg/mL (≈ 14.6 µM)
- MIC [34]: 2 µg/mL (≈ 3.66 µM)
- MIC [35]: 4 µg/mL (≈ 7.32 µM)
- MIC [36]: 32 µg/mL (≈ 58.5 µM)
- MIC [37]: 2 µg/mL (≈ 3.66 µM)
- MIC [38]: 2 µg/mL (≈ 3.66 µM)
- MIC [39]: 2 µg/mL (≈ 3.66 µM)
- MIC [40]: 2 µg/mL (≈ 3.66 µM)
- MIC [41]: 2 µg/mL (≈ 3.66 µM)
- MIC [42]: 2 µg/mL (≈ 3.66 µM)
- MIC [43]: 0.12 µg/mL (≈ 0.22 µM)
- MIC [44]: 2 µg/mL (≈ 3.66 µM)
- MIC [45]: 8 µg/mL (≈ 14.6 µM)
- MIC [46]: 4 µg/mL (≈ 7.32 µM)
- MIC [47]: 8 µg/mL (≈ 14.6 µM)
- MIC [48]: 32 µg/mL (≈ 58.5 µM)
- MIC [49]: 4 µg/mL (≈ 7.32 µM)
- MIC [50]: 1 µg/mL (≈ 1.83 µM)
- MIC [51]: 4 µg/mL (≈ 7.32 µM)
- MIC [52]: 1 µg/mL (≈ 1.83 µM)
- MIC [53]: 8 µg/mL (≈ 14.6 µM)
- MIC [54]: 16 µg/mL (≈ 29.3 µM)
- MIC [55]: 4 µg/mL (≈ 7.32 µM)
- MIC [56]: 4 µg/mL (≈ 7.32 µM)
- MIC [57]: 4 µg/mL (≈ 7.32 µM)
- MIC [58]: 2 µg/mL (≈ 3.66 µM)
- MIC [59]: 8 µg/mL (≈ 14.6 µM)
- MIC [60]: 8 µg/mL (≈ 14.6 µM)
- MIC [61]: 16 µg/mL (≈ 29.3 µM)
- MIC [62]: 8 µg/mL (≈ 14.6 µM)
- MIC [63]: 64 µg/mL (≈ 117 µM)
- MIC [64]: 1 µg/mL (≈ 1.83 µM)
